US7781454B2 (priority 2006, dated 2010)
Structures can show the parent of a compound that is named as a salt. Where two headings read alike, the source gives them in different places.

Legend:
[1] = tested on: HIV strain containing the K103N mutation; assay: Spread assay: inhibition of HIV replication (K103N mutant strain); type: cell-based; settings: Human immunodeficiency virus 1, read-out: Spread (K103N) CIC95
Experimental: (§1) Assays for the inhibition of acute HIV-1 infection of T-lymphoid cells (alternatively referred to herein as the “spread assay”) were conducted in accordance with Vacca, J. P. et al., Proc. Natl. Acad. Sci. USA 1994, 91: 4096. The assays tested for inhibition of wild type HIV-1 and of HIV strains containing the Y181C or K103N mutation. […] The compounds of Examples 1 to 4 had CIC95 values of less than 10 micromolar in the assay employing the K103N mutant strain. […] Table C also reports the CIC95 values of the compounds of Examples 1-7, 9-13 and 15-29 obtained in the assays employing the Y181C mutant strain and the K103N mutant strain.

[2] = target: T1, mutant HIV reverse transcriptase (Y181C mutation) (Human immunodeficiency virus type 1 group M subtype B, UniProt P04585, Y768C); assay: ECL assay for inhibition of mutant HIV reverse transcriptase (Y181C); type: biochemical
T1 construct: against mutant HIV reverse transcriptase; made in house
Experimental: (§2) 100 μL reaction mixtures were initiated with a combination of primer-template substrate ([…]) and dNTPs (0.6 μM dNTPs, 1.25 μM BrdUTP). The heterodimeric nucleic acid substrate was generated by annealing the DNA primer pD500 (described in Shaw-Reid et al., J. Biol. Chem., 278: 2777-2780; obtained from Integrated DNA Technologies) to t500, a 500 nucleotide RNA template created by in vitro transcription (see Shaw-Reid et al., J. Biol. Chem., 278: 2777-2780). After 1 hour incubation at 37° C., reactions were quenched by 10 μL of 1 N NaOH. Microtiter plates were incubated for an additional 30 minutes at room temperature and then neutralized with 10 μL of 1 N HCl. A mixture of detection buffer containing ruthenylated anti-BrdU antibody and streptavidin coated magnetic beads were added to the plate and incubated at room temperature for 1.5 hours prior to quantification via electrochemiluminescence instrument.
(§3) Analogous assays were conducted substituting mutant HIV strains to determine the in vitro inhibition of compounds of the present invention against mutant HIV reverse transcriptase. In one strain the reverse transcriptase has the Y181C mutation and in the other strain the reverse transcriptase has the K103N mutation. The mutations were generated with the QUIKCHANGE site-directed mutagenesis kit (Stratagene).

[3] = tested on: HIV strain containing the Y181C mutation; assay: Spread assay: inhibition of HIV replication (Y181C mutant strain); type: cell-based; settings: Human immunodeficiency virus 1, read-out: Spread (Y181C) CIC95
Experimental: as §1

wild type HIV-1 = assay: Spread assay: inhibition of acute HIV-1 infection of T-lymphoid cells (WT); type: cell-based; settings: Human immunodeficiency virus 1, T-lymphoid; wild-type strain; 10% FBS; read-out: Spread (WT) CIC95
Experimental: as §1

[4] = target: HIV-1 RT enzyme (wild-type) (Human immunodeficiency virus type 1 group M subtype B, UniProt P04585); assay: ECL assay for inhibition of HIV reverse transcriptase (WT); type: biochemical
Experimental: as §2

[5] = target: T2, mutant HIV reverse transcriptase (K103N mutation) (Human immunodeficiency virus type 1 group M subtype B, UniProt P04585, K690N); assay: ECL assay for inhibition of mutant HIV reverse transcriptase (K103N); type: biochemical
T2 construct: against mutant HIV reverse transcriptase; made in house
Experimental: as §2, §3

[6] = Y181C mutant RT, read-out: ECL Assay (Y181C) IC50
[7] = K103N mutant RT, read-out: ECL Assay (K103N) IC50

| Compound | IC95 [1] | IC50 [2, 6] | IC95 [3] | IC95 (wild type HIV-1) | IC50 [4] | IC50 [5, 7] | IC50 [2] | IC50 [5] |
| --- | --- | --- | --- | --- | --- | --- | --- | --- |
| N#Cc1cc(Cl)cc(Oc2c(Cl)ccc3c2nnn3Cc2n[nH]c3nc(N)ccc23)c1 [Example 6, 3-({1-[(6-amino-1H-pyrazolo[3,4-b]pyridin-3-yl)methyl]-5-chloro-1H-1,2,3-benzotriazol-4-yl}oxy)-5-chlorobenzonitrile] | < 4 nM | 0.82 nM | 25 nM | 3 nM | 0.4 nM | 0.53 nM | – | – |
| N#Cc1cc(Cl)cc(Oc2c(Cl)ccc3c2ncn3Cc2n[nH]c3ncccc23)c1 [Example 7, 3-chloro-5-{[5-chloro-1-(1H-pyrazolo[3,4-b]pyridin-3-ylmethyl)-1H-benzimidazol-4-yl]oxy}benzonitrile dihydrochloride] | 39 nM | – | 225 nM | 28 nM | 0.92 nM | – | 1.7 nM | 4.1 nM |
| N#Cc1cc(Cl)cc(Oc2c(Cl)ccc3c2ncn3Cc2n[nH]c3nc(N)ccc23)c1 [Example 10, 3-({1-[(6-amino-1H-pyrazolo[3,4-b]pyridin-3-yl)methyl]-5-chloro-1H-benzimidazol-4-yl}oxy)-5-chlorobenzonitrile bis(trifluoroacetate)] | 85 nM | – | 468 nM | 21 nM | 1.5 nM | – | 13 nM | 13 nM |
| N#Cc1cc(Cl)cc(Oc2c(Cl)ccc3c2nnn3CC(=O)Nc2ccccc2Cl)c1 [Example 12, 2-[5-chloro-4-(3-chloro-5-cyanophenoxy)-1H-1,2,3-benzotriazol-1-yl]-N-(2-chlorophenyl)acetamide] | 41 nM | 0.89 nM | 137 nM | 23 nM | 0.45 nM | 0.94 nM | – | – |
| N#Cc1cc(Cl)cc(Oc2c(Cl)ccc3c2nnn3CC(=O)Nc2ccncc2C(F)(F)F)c1 [Example 13, 2-[5-chloro-4-(3-chloro-5-cyanophenoxy)-1H-1,2,3-benzotriazol-1-yl]-N-[3-(trifluoromethyl)pyridin-4-yl]acetamide] | 151 nM | 2.4 nM | 382 nM | 45 nM | 1 nM | 3 nM | – | – |
| NCc1cc(Cl)cc(Oc2c(Cl)ccc3c2nnn3Cc2n[nH]c3ncccc23)c1 [Example 17, (3-chloro-5-{[5-chloro-1-(1H-pyrazolo[3,4-b]pyridin-3-ylmethyl)-1H-1,2,3-benzotriazol-4-yl]oxy}phenyl)methanaminium trifluoroacetate] | 262 nM | – | > 833 nM | 60 nM | 38 nM | – | 74 nM | 79 nM |
| O=Cc1cc(Cl)cc(Oc2c(Cl)ccc3c2nnn3Cc2n[nH]c3ncccc23)c1 [Example 18, 3-chloro-5-{[5-chloro-1-(1H-pyrazolo[3,4-b]pyridin-3-ylmethyl)-1H-1,2,3-benzotriazol-4-yl]oxy}benzaldehyde] | 154 nM | 3.7 nM | 825 nM | 55 nM | 2.1 nM | 2.6 nM | – | – |
| N#Cc1cc(Cl)cc(Oc2c(Cl)ccc3c2nnn3Cc2n[nH]c3ncccc23)c1Cl [Example 19, 2,5-dichloro-3-{[5-chloro-1-(1H-pyrazolo[3,4-b]pyridin-3-ylmethyl)-1H-1,2,3-benzotriazol-4-yl]oxy}benzonitrile] | 15 nM | 0.77 nM | 27 nM | 7 nM | 0.57 nM | 0.93 nM | – | – |
